For 43 compounds, IC50 results are on record in US10807994B2, “Heterocyclic compounds and uses thereof” (NUVATION BIO INC., priority 2017, dated 2020).

SMILES strings stand for the structures.

One assay concerns the target WEE1 kinase enzyme (Homo sapiens (Human), UniProt P30291). Put plainly: WEE1 IC50 determination, LanthaScreen Terbium labeled TR-FRET kinase assay. The class given is biochemical. The note with it: WEE1 enzyme 1 nM. The method, then:
IC50 values of compounds against WEE1 kinase enzyme were determined by LanthaScreen™ Terbium Labeled TR-FRET assay. Kinase assays were performed in 1× kinase buffer (# PV6135, Invitrogen, Life Technologies Grand Island, N.Y.) where total reaction volume was 10 μl in low-volume 384-well plates (#4511, Corning). Serially diluted compounds (3-fold) were incubated with WEE1 Enzyme (1 nM) (# PR7373A, Invitrogen, Life Technologies Grand Island, N.Y.) for 10 min, following which a mixture of ATP […] (# A1852, Sigma, St-Louis, Mo.) and fluorescent-PolyGT substrate (200 nM) (# PV3610, Invitrogen, Life Technologies Grand Island, N.Y.) was added and incubated in dark at room temperature for 1 h. After 1 h, 10 μl stop solution containing Terbium labeled antibody (4 nM) (# PV3529, Invitrogen, Life Technologies Grand Island, N.Y.) and EDTA (# E5134, Sigma, St-Louis, Mo.) (20 mM) in TR-FRET dilution buffer (# PV3574, Invitrogen, Life Technologies Grand Island, N.Y.) was added. Readings were taken in a Synergy Neo Plate reader (BioTek, Winooski) at single excitation of 340 nm and Dual emission at 495 nm and 520 nm respectively.
The % activity of test samples was calculated as (Sample−Min)*100/(Max−Min). [Max: DMSO control, complete reaction with enzyme & DMSO and Min: No enzyme & DMSO]. Percent inhibition (100-% activity) was fitted to the “four-parameter logistic model” in XLfit for determination of IC50 values.

The test system of another assay is A427 cells. Nature of the assay: Cytotoxicity assay (resazurin), A427 cells, 72 hr. The note with it: Homo sapiens, A-427, read-out: Cell Viability A427 IC50. The class given is cell-based. The method, then: A549 (CCL-185; ATCC) and A427 (HTB-53; ATCC), both lung epithelial cell lines were seeded in their respective medium (DMEM/MEM, 10569044/41090101; Gibco) at a cell count of 1500 cells per 100 μL per well in a 96 well edge plate (167425; ThermoFisher). Cells were allowed to grow at 37° C. for 24 hr in 5% CO2 environment (culture conditions) in a Nuaire incubator (humidified). Serially diluted test compounds (100 μL) within the desired testing concentration ranges were added to the culture plate were further incubated in culture conditions for 72 hr and 96 hr for A427 and A549 respectively. The experiment was terminated at the designated incubation time by replacing the medium with 100 μL of 1 mM of resazurin (R7017; Sigma) prepared in respective culture medium, and the plates were further incubated in culture conditions for 4-6 hr. Fluorescence was recorded using a multimodal plate reader (Biotek Synergy Neo) at an excitation wavelength of 535 nm and emission wavelength of 590 nm to obtain relative fluorescence units. Data analysis was done by subtracting the background fluorescence (only medium blank) value from each reading and then normalizing with the vehicle control (DMSO treated cells) to obtain percent survival/proliferation. Percent survival was then subtracted by 100 to get the percent inhibition of proliferation which was used to calculate IC50 values. Potency of compounds in other cell lines (As-Pc-1, Panc-10.05, MDAMB231, A172) was determined in an analogous manner.

WEE1 kinase enzyme, sequence (P30291 whole entry): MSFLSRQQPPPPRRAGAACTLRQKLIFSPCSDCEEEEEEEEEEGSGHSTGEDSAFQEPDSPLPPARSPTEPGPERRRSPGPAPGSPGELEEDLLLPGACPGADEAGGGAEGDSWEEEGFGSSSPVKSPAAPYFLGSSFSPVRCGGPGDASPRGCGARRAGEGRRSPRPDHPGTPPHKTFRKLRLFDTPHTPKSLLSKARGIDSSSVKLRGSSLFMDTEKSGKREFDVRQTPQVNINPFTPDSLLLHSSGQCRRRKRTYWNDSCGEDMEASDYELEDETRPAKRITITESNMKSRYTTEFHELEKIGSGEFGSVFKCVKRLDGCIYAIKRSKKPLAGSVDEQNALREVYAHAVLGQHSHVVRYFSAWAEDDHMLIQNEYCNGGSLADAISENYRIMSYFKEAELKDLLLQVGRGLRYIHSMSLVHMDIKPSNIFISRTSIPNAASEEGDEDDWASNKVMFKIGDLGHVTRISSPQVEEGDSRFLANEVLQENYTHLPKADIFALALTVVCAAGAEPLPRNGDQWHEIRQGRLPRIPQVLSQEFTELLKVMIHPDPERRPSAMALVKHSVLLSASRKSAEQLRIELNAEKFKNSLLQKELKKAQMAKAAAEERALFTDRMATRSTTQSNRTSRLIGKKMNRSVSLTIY

As to `O=C1c2cnc(Nc3ccc(N4CCOCC4)cc3)nc2OCN1c1c(Cl)cccc1Cl` [Example 1.2], on WEE1 kinase enzyme, the IC50 came to 3260 nM. On the same count and under the same terms, the result for `CC(C)(O)C(=O)N1Cc2cc(Nc3ncc4c(n3)OCN(c3c(Cl)cccc3Cl)C4=O)ccc2C(C)(C)C1` [Example 1.6] reads 279 nM; that for `O=C(CO)N1CCc2ccc(Nc3ncc4c(n3)OCN(c3c(Cl)cccc3Cl)C4=O)cc2C1` [Example 1.7], 74 nM; that for `O=C(CO)N1CCN(c2ccc(Nc3ncc4c(n3)OCN(c3c(Cl)cccc3Cl)C4=O)cc2)CC1` [Example 1.8], 162 nM. As for `O=C1c2cnc(Nc3ccc(N4CCNCC4)cc3)nc2OCN1c1ccccc1Cl` [Example 1.9], the IC50 on WEE1 kinase enzyme is 193 nM.

Regarding `CN1CCN(c2ccc(Nc3ncc4c(n3)OCN(c3ccc(F)cc3Cl)C4=O)cc2)CC1` [Example 1.11], the IC50 on WEE1 kinase enzyme is 837 nM.

On to `O=C1c2cnc(Nc3ccc(N4CCNCC4CO)cc3)nc2OCN1c1c(Cl)cccc1Cl` (stereo not drawn) [Example 1.13], for which the IC50 at WEE1 kinase enzyme is 144 nM.

For the compound `CC1(C)CNCc2cc(Nc3ncc4c(n3)OCN(c3ccc(F)cc3Cl)C4=O)ccc21` [Example 1.14], the IC50 on WEE1 kinase enzyme amounted to 173 nM.

For the compound `CCS(=O)(=O)N1CCN(c2ccc(Nc3ncc4c(n3)OCN(c3c(Cl)cccc3Cl)C4=O)cc2)CC1` [Example 1.15], the concentration for half-maximal inhibition (IC50) on WEE1 kinase enzyme stood at 1560 nM. In the case of `CC1Oc2nc(Nc3ccc(N4CCNCC4)cc3)ncc2C(=O)N1c1c(Cl)cccc1Cl` (stereo not drawn) [Example 1.17], the IC50 at WEE1 kinase enzyme was 156 nM. The same measure, in the same setting: the result for `CCN1CCN(c2ccc(Nc3ncc4c(n3)OCN(c3c(Cl)cccc3Cl)C4=O)cc2)CC1` [Example 1.18] reads 192 nM. Same read-out and setting: with `CC(C)N1CCN(c2ccc(Nc3ncc4c(n3)OCN(c3c(Cl)cccc3Cl)C4=O)cc2)CC1` [Example 1.19] the figure was 206 nM; with `O=C1c2cnc(Nc3ccc(N4CCN(C5CC5)CC4)cc3)nc2OCN1c1c(Cl)cccc1Cl` [Example 1.21], 1390 nM; with `CCN1Cc2cc(Nc3ncc4c(n3)OCN(c3c(Cl)cccc3Cl)C4=O)ccc2C(C)(C)C1` [Example 1.22], 30 nM.

With `O=C1NCCc2ccc(Nc3ncc4c(n3)OCN(c3c(Cl)cccc3Cl)C4=O)cc21` [Example 1.23], the IC50 at WEE1 kinase enzyme was found to be 607 nM.

As to `CN1CCN(c2ccc(Nc3ncc4c(n3)OCN(c3c(F)cccc3Cl)C4=O)cc2)CC1` [Example 1.25], the IC50 on WEE1 kinase enzyme amounted to 68 nM.

With `CC1CNCCN1c1ccc(Nc2ncc3c(n2)OCN(c2c(Cl)cccc2Cl)C3=O)cc1` (stereo not drawn) [Example 1.26], on WEE1 kinase enzyme, the IC50 was 88 nM. On the same count and under the same terms, the result for `CC1(C)CNCc2cc(Nc3ncc4c(n3)OCN(c3c(F)cccc3Cl)C4=O)ccc21` [Example 1.28] reads 35 nM; that for `CN1CCN(c2ccc(Nc3ccc4c(n3)OCN(c3c(Cl)cccc3Cl)C4=O)cc2)CC1` [Example 1.31, 3-(2,6-dichlorophenyl)-7-(4-(4-methylpiperazin-1-yl)phenylamino)-2H-pyrido[3,2-e][1,3]oxazin-4(3H)-one], 30000 nM. `CC1CCN(c2ccc(Nc3ncc4c(n3)OCN(c3c(Cl)cccc3Cl)C4=O)cc2)CC1` [Example 1.59, 3-(2,6-dichlorophenyl)-7-(4-(4-methylpiperidin-1-yl)phenylamino)-2H-pyrimido[5,4-e][1,3]oxazin-4(3H)-one]: the IC50 in the assay with A427 cells was 14000 nM; on WEE1 kinase enzyme it was greater than 5000 nM.

As to `O=C1c2cnc(Nc3ccc(N4CCCNCC4)cc3)nc2OCN1c1c(Cl)cccc1Cl` [Example 1.61], the half-inhibitory concentration (IC50) in the assay with A427 cells came out at 4120 nM; on WEE1 kinase enzyme it was 110 nM.

`CC1Oc2nc(Nc3ccc(N4CCNCC4)c(CO)c3)ncc2C(=O)N1c1c(Cl)cccc1Cl` (stereo not drawn) [Example 1.62]: the IC50 with A427 cells turned out to be 2800 nM; on WEE1 kinase enzyme, 123 nM.

For `O=C1c2cnc(Nc3ccc(N4CCC(F)(F)CC4)cc3)nc2OCN1c1c(Cl)cccc1Cl` [Example 1.63], the IC50 at WEE1 kinase enzyme is greater than 5000 nM. With `O=C1c2cnc(Nc3ccc4cnccc4c3)nc2OCN1c1c(Cl)cccc1Cl` [Example 1.64], the IC50 on WEE1 kinase enzyme was greater than 5000 nM.

As for `O=C1c2cnc(Nc3ccc4c(c3)CN(CC(F)F)CC4)nc2OCN1c1c(Cl)cccc1Cl` [Example 1.65], the IC50 at WEE1 kinase enzyme came to 1330 nM. In the case of `O=C1c2cnc(Nc3ccc4[nH]ncc4c3)nc2OCN1c1c(Cl)cccc1Cl` [Example 1.87], the IC50 came out at 25400 nM in the assay on A427 cells and 777 nM at WEE1 kinase enzyme. With `O=C1c2cnc(Nc3ccc(N4CCNC(CO)C4)cc3)nc2OCN1c1c(Cl)cccc1Cl` (stereo not drawn) [Example 1.96], the IC50 with A427 cells turned out to be 5890 nM; at WEE1 kinase enzyme, 47 nM. On to `CN(c1ccc(N2CCNCC2)cc1)c1ncc2c(n1)OCN(c1c(Cl)cccc1Cl)C2=O` [Example 1.104], for which the IC50 in the assay on A427 cells was 27800 nM; at WEE1 kinase enzyme, greater than 5000 nM. Taken in the same sequence, the figures for `CN(C)Cc1c[nH]c2cc(Nc3ncc4c(n3)OCN(c3c(Cl)cccc3Cl)C4=O)ccc12` [Example 1.107] were 7700 nM and 110 nM. Taken in the same sequence, the figures for `O=C1c2cnc(Nc3ccc4c(c3)NCCC4)nc2OCN1c1c(Cl)cccc1Cl` [Example 1.121] were 7330 nM and 501 nM. For `C[C@H]1CNCCN1c1ccc(Nc2ncc3c(n2)OCN(c2c(Cl)cccc2Cl)C3=O)cc1` [Example 1.172], in that order: 4900 nM and 66 nM. As to `C[C@@H]1CN(c2ccc(Nc3ncc4c(n3)OCN(c3c(Cl)cccc3Cl)C4=O)cc2)CCN1` [Example 1.173], the half-inhibitory concentration (IC50) in the assay on A427 cells worked out at 3320 nM; at WEE1 kinase enzyme it was 87 nM. As for `C[C@@H]1CN(c2ccc(Nc3ncc4c(n3)OCN(c3c(Cl)cccc3Cl)C4=O)cc2F)CCN1` [Example 1.174], the IC50 in the assay on A427 cells was 3400 nM; at WEE1 kinase enzyme, 32 nM. Taken in the same sequence, the figures for `O=C1c2cnc(Nc3ccc4[nH]ccc4c3)nc2OCN1c1c(Cl)cccc1Cl` [Example 1.175] were 22000 nM and 66 nM. For `Cc1cc(Nc2ncc3c(n2)OCN(c2c(Cl)cccc2Cl)C3=O)cc(C)c1N1CCNCC1` [Example 1.176], in that order: 3250 nM and 105 nM. Taken in the same sequence, the figures for `CN(C)C1CCN(c2ccc(Nc3ncc4c(n3)OCN(c3c(Cl)cccc3Cl)C4=O)cc2)CC1` [Example 1.223] were 1660 nM and 32 nM. As to `O=C1c2cnc(Nc3ccc4c(c3)CCCN4)nc2OCN1c1c(Cl)cccc1Cl` [Example 1.224], the IC50 in the assay on A427 cells amounted to 12100 nM; at WEE1 kinase enzyme, 232 nM. Taken in the same sequence, the figures for `CCN(CC)CCOc1ccc(Nc2ncc3c(n2)OCN(c2c(Cl)cccc2Cl)C3=O)cc1` [Example 1.225] were 2160 nM and 282 nM. For `O=C1c2cnc(Nc3ccc4c(c3)NCCN4)nc2OCN1c1c(Cl)cccc1Cl` [Example 1.226], in that order: 5360 nM and 188 nM. Taken in the same sequence, the figures for `CC1CN(c2ccc(Nc3ncc4c(n3)OCN(c3c(Cl)cccc3Cl)C4=O)cc2Cl)CCN1` (stereo not drawn) [Example 1.228] were 1460 nM and 127 nM. `C[C@H]1CN(c2ccc(Nc3ncc4c(n3)OCN(c3c(Cl)cccc3Cl)C4=O)cc2Cl)CCN1` [Example 1.229]: the half-inhibitory concentration (IC50) in the assay with A427 cells turned out to be 2250 nM; at WEE1 kinase enzyme, 185 nM. For `CN1CCN(c2ccc(Nc3ncc4c(n3)SCN(c3c(Cl)cccc3Cl)C4=O)cc2)CC1` [Example 1.230], in that order: 4940 nM and 561 nM.

Take `C[C@@H]1CN(c2ccc(Nc3ncc4c(n3)OCN(c3c(Cl)cccc3Cl)C4=O)cc2Cl)CCN1` [Example 1.919]: on WEE1 kinase enzyme, the half-maximal inhibitory concentration (IC50) came to 340 nM.
